# Test results taken from PubChem BioAssay (NCI).
#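 Briefly, cells in 96-well plates were exposed to five compound concentrations for 48 h, and endpoints were estimated by linear interpolation. GI50 = concentration required for 50% inhibition of growth. Definition used: TGI = concentration required for complete inhibition of growth.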
# Key:
# Test in all cases: NCI anticancer screen, dose series, 48 h
# 786-0 renal = system: 786-0 renal
# A498 renal = system: A498 renal
# A549 NSCLC = system: A549 NSCLC
# ACHN renal = system: ACHN renal
# BT-549 breast = system: BT-549 breast
# CAKI-1 renal = system: CAKI-1 renal
# CCRF-CEM leukemia = system: CCRF-CEM leukemia
# COLO 205 colon = system: COLO 205 colon
# DU-145 prostate = system: DU-145 prostate
# HCC-2998 colon = system: HCC-2998 colon
# HCT-116 colon = system: HCT-116 colon
# HCT-15 colon = system: HCT-15 colon
# HL-60(TB) leukemia = system: HL-60(TB) leukemia
# HOP-62 NSCLC = system: HOP-62 NSCLC
# HOP-92 NSCLC = system: HOP-92 NSCLC
# HS 578T breast = system: HS 578T breast
# HT29 colon = system: HT29 colon
# IGROV1 ovarian = system: IGROV1 ovarian
# K-562 leukemia = system: K-562 leukemia
# KM12 colon = system: KM12 colon
# M14 melanoma = system: M14 melanoma
# MCF7 breast = system: MCF7 breast
# MDA-MB-231 breast = system: MDA-MB-231 breast
# MDA-MB-435 = system: MDA-MB-435
# MOLT-4 leukemia = system: MOLT-4 leukemia
# NCI-H226 lung = system: NCI-H226 lung
# NCI-H23 lung = system: NCI-H23 lung
# NCI-H460 lung = system: NCI-H460 lung
# NCI-H522 lung = system: NCI-H522 lung
# NCI/ADR-RES ovarian = system: NCI/ADR-RES ovarian
# OVCAR-4 ovarian = system: OVCAR-4 ovarian
# OVCAR-5 ovarian = system: OVCAR-5 ovarian
# OVCAR-8 ovarian = system: OVCAR-8 ovarian
# PC-3 prostate = system: PC-3 prostate
# RPMI-8226 leukemia = system: RPMI-8226 leukemia
# RXF 393 renal = system: RXF 393 renal
# SF-268 CNS = system: SF-268 CNS
# SF-295 CNS = system: SF-295 CNS
# SF-539 CNS = system: SF-539 CNS
# SK-MEL-28 melanoma = system: SK-MEL-28 melanoma
# SK-MEL-5 melanoma = system: SK-MEL-5 melanoma
# SK-OV-3 ovarian = system: SK-OV-3 ovarian
# SN12C renal = system: SN12C renal
# SNB-19 CNS = system: SNB-19 CNS
# SW-620 colon = system: SW-620 colon
# T-47D breast = system: T-47D breast
# TK-10 renal = system: TK-10 renal
# U251 CNS = system: U251 CNS
# UACC-257 melanoma = system: UACC-257 melanoma
# UO-31 renal = system: UO-31 renal
smiles,measurement,setting,value
ClC(Cl)c1nc(-c2cccs2)n2nc(-c3ccccc3)cc2n1,GI50,786-0 renal,2.37 µM
same,TGI,786-0 renal,> 100 µM
same,GI50,A498 renal,1.25 µM
same,TGI,A498 renal,2.53 µM
same,GI50,A549 NSCLC,0.68 µM
same,TGI,A549 NSCLC,2.73 µM
same,GI50,ACHN renal,0.274 µM
same,TGI,ACHN renal,1.05 µM
same,GI50,BT-549 breast,8.73 µM
same,TGI,BT-549 breast,> 100 µM
same,GI50,CAKI-1 renal,1.13 µM
same,TGI,CAKI-1 renal,4.01 µM
same,GI50,CCRF-CEM leukemia,5.92 µM
same,TGI,CCRF-CEM leukemia,> 100 µM
same,GI50,COLO 205 colon,0.476 µM
same,TGI,COLO 205 colon,2.07 µM
same,GI50,DU-145 prostate,0.293 µM
same,TGI,DU-145 prostate,0.77 µM
same,GI50,HCC-2998 colon,0.464 µM
same,TGI,HCC-2998 colon,1.74 µM
same,GI50,HCT-116 colon,1.3 µM
same,TGI,HCT-116 colon,6.87 µM
same,GI50,HCT-15 colon,1.06 µM
same,TGI,HCT-15 colon,3.63 µM
same,GI50,HL-60(TB) leukemia,0.267 µM
same,TGI,HL-60(TB) leukemia,1.31 µM
same,GI50,HOP-62 NSCLC,0.419 µM
same,TGI,HOP-62 NSCLC,2.99 µM
same,GI50,HOP-92 NSCLC,0.444 µM
same,TGI,HOP-92 NSCLC,2.48 µM
same,GI50,HS 578T breast,1.6 µM
same,TGI,HS 578T breast,4.71 µM
same,GI50,HT29 colon,0.355 µM
same,TGI,HT29 colon,1.75 µM
same,GI50,IGROV1 ovarian,2.65 µM
same,TGI,IGROV1 ovarian,> 100 µM
same,GI50,K-562 leukemia,2.13 µM
same,TGI,K-562 leukemia,> 100 µM
same,GI50,KM12 colon,2.48 µM
same,TGI,KM12 colon,8.34 µM
same,GI50,M14 melanoma,4.35 µM
same,TGI,M14 melanoma,> 100 µM
same,GI50,MCF7 breast,0.425 µM
same,TGI,MCF7 breast,3.53 µM
same,GI50,MDA-MB-231 breast,0.5 µM
same,TGI,MDA-MB-231 breast,2.75 µM
same,GI50,MDA-MB-435,1.47 µM
same,TGI,MDA-MB-435,2.99 µM
same,GI50,MOLT-4 leukemia,2.82 µM
same,TGI,MOLT-4 leukemia,> 100 µM
same,GI50,NCI-H226 lung,> 100 µM
same,TGI,NCI-H226 lung,> 100 µM
same,GI50,NCI-H23 lung,1.47 µM
same,TGI,NCI-H23 lung,4.44 µM
same,GI50,NCI-H460 lung,0.299 µM
same,TGI,NCI-H460 lung,0.974 µM
same,GI50,NCI-H522 lung,> 100 µM
same,TGI,NCI-H522 lung,> 100 µM
same,GI50,NCI/ADR-RES ovarian,0.912 µM
same,TGI,NCI/ADR-RES ovarian,4.09 µM
same,GI50,OVCAR-4 ovarian,2.02 µM
same,TGI,OVCAR-4 ovarian,5.06 µM
same,GI50,OVCAR-5 ovarian,1.74 µM
same,TGI,OVCAR-5 ovarian,5.12 µM
same,GI50,OVCAR-8 ovarian,1.15 µM
same,TGI,OVCAR-8 ovarian,> 100 µM
same,GI50,PC-3 prostate,1.18 µM
same,TGI,PC-3 prostate,3.75 µM
same,GI50,RPMI-8226 leukemia,0.472 µM
same,TGI,RPMI-8226 leukemia,2.56 µM
same,GI50,RXF 393 renal,0.477 µM
same,TGI,RXF 393 renal,1.69 µM
same,GI50,SF-268 CNS,1.6 µM
same,TGI,SF-268 CNS,5.18 µM
same,GI50,SF-295 CNS,0.801 µM
same,TGI,SF-295 CNS,3.39 µM
same,GI50,SF-539 CNS,1.1 µM
same,TGI,SF-539 CNS,2.94 µM
same,GI50,SK-MEL-28 melanoma,1.69 µM
same,TGI,SK-MEL-28 melanoma,3.22 µM
same,GI50,SK-MEL-5 melanoma,> 100 µM
same,TGI,SK-MEL-5 melanoma,> 100 µM
same,GI50,SK-OV-3 ovarian,1.89 µM
same,TGI,SK-OV-3 ovarian,6.66 µM
same,GI50,SN12C renal,> 100 µM
same,TGI,SN12C renal,> 100 µM
same,GI50,SNB-19 CNS,0.635 µM
same,TGI,SNB-19 CNS,3.71 µM
same,GI50,SW-620 colon,0.681 µM
same,TGI,SW-620 colon,3.49 µM
same,GI50,T-47D breast,1.51 µM
same,TGI,T-47D breast,5.72 µM
same,GI50,TK-10 renal,3.23 µM
same,TGI,TK-10 renal,6.25 µM
same,GI50,U251 CNS,0.326 µM
same,TGI,U251 CNS,1.82 µM
same,GI50,UACC-257 melanoma,2.4 µM
same,TGI,UACC-257 melanoma,5.68 µM
same,GI50,UO-31 renal,1.19 µM
same,TGI,UO-31 renal,4.52 µM
